{"source": "patent US8604055B2", "about": "“Substituted benzylamino quinolines as cholesterol ester-transfer protein inhibitors” (Dr. Reddy's Laboratories Ltd., priority 2004, dated 2013)", "molecular_target": "T1, Recombinant CETP enzyme (Homo sapiens, UniProt P11597)", "T1 construct": "purchased Cardiovascular Targets", "T1 sequence (P11597 18-493)": "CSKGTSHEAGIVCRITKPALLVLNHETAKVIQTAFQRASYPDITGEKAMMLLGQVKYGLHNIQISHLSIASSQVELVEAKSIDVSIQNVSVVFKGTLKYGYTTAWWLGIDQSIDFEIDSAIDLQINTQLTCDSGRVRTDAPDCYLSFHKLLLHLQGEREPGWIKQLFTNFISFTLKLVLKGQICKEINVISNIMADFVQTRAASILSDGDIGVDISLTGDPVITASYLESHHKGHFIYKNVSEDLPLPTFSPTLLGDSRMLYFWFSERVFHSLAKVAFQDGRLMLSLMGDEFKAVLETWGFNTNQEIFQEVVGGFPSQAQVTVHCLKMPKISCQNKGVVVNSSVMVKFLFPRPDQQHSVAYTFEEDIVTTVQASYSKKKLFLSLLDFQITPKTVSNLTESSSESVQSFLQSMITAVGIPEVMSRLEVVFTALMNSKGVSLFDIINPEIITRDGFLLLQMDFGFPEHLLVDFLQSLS", "test": "In vitro fluorescence-based CETP inhibition assay (BODIPY-CE transfer from donor to acceptor microemulsions)", "type": "biochemical", "details": "recombinant CETP 0.14 ng/μl; transfer of fluorescent cholesteryl ester monitored over 2 hours; vs DMSO controls", "procedure": "An in vitro fluorescence-based assay to identify CETP inhibitors was developed from modifications of the protocols outlined in Bisgaier et al., J Lipid Res., 34(9): 1625-34 (1993) and Epps et al., Chem Phys Lipids., 77(1): 51-63 (1995). Acceptor and donor lipid microemulsions were prepared according to Bisgaier et al., 1993, except that the buffer was prepared with 0.67 ug/mL human HDL (Calbiochem). Donor microemulsions contained the fluorescent cholesteryl ester analog BODIPY-CE (Molecular Probes), characterized by excitation and emission maxima at 503 nm and 518 nm, respectively. The CETP-mediated transfer of fluorescent cholesteryl ester to acceptor particles was monitored over a 2-hour time period using the FAM filter set (excitation 492 nm, emission 516 nm) in an MX3000P fluorescent plate reader (Stratagene). Recombinant CETP enzyme (Cardiovascular Targets) was used at 0.14 ng/μl, final concentration, to achieve lipid transfer. CETP inhibition by compounds was compared to DMSO controlsand graphed as a percentage of the control CETP activity over 2 hours. The IC50 curves for CETP inhibition were generated from the activity profiles. Active compounds were also tested for CETP inhibition as above, but in the presence of 3% human serum albumin, fraction V (Calbiochem).", "note": "pIC50: −log10 of the molar value.", "data": [{"smiles": "CCCCN(CC)c1nc2ccccc2cc1CN(Cc1cc(C(F)(F)F)cc(C(F)(F)F)c1)C(=O)OCC", "note": "[Example 41, (3,5-bis-trifluoromethyl-benzyl)-[2-(butyl-ethyl-amino)-quinolin-3-ylmethyl]-carbamic acid ethyl ester]", "values": [{"measurement": "pIC50", "value": "≥ 5.30"}]}, {"smiles": "CCOC(=O)N(Cc1cc(C(F)(F)F)cc(C(F)(F)F)c1)Cc1cc2ccccc2nc1N(CC)CC1CCCCC1", "note": "[Example 42, (3,5-bis-trifluoromethyl-benzyl)-[2-(cyclohexylmethyl-ethyl-amino)-quinolin-3-ylmethyl]-carbamic acid ethyl ester]", "values": [{"measurement": "pIC50", "value": "≥ 5.30"}]}, {"smiles": "CCCN(CC1CCCC1)c1nc2ccccc2cc1CN(Cc1cc(C(F)(F)F)cc(C(F)(F)F)c1)C(=O)OCC", "note": "[Example 43, (3,5-bis-trifluoromethyl-benzyl)-[2-(cyclopentylmethyl-propyl-amino)-quinolin-3-ylmethyl]-carbamic acid ethyl ester]", "values": [{"measurement": "pIC50", "value": "≥ 5.30"}]}, {"smiles": "CCN(CC1CC1)c1nc2ccccc2cc1CN(Cc1cc(C(F)(F)F)cc(C(F)(F)F)c1)C(=O)OC", "note": "[Example 44, (3,5-bis-trifluoromethyl-benzyl)-[2-(cyclopropylmethyl-ethyl-amino)-quinolin-3-ylmethyl]-carbamic acid methyl ester]", "values": [{"measurement": "pIC50", "value": "≥ 5.30"}]}, {"smiles": "CCN(CC1CCC1)c1nc2ccccc2cc1CN(Cc1cc(C(F)(F)F)cc(C(F)(F)F)c1)C(=O)OC", "note": "[Example 45]", "values": [{"measurement": "pIC50", "value": "≥ 5.30"}]}, {"smiles": "CCN(CC1CCCC1)c1nc2ccc(C)cc2cc1CN(Cc1cc(C(F)(F)F)cc(C(F)(F)F)c1)C(=O)OC", "note": "[Example 46, (3,5-bis-trifluoromethyl-benzyl)-[2-(cyclopentylmethyl-ethyl-amino)-6-methyl-quinolin-3-ylmethyl]-carbamic acid methyl ester]", "values": [{"measurement": "pIC50", "value": "≥ 5.30"}]}, {"smiles": "CCN(CC1CCCC1)c1nc2ccccc2cc1CN(Cc1cc(C(F)(F)F)cc(C(F)(F)F)c1)C(=S)SC", "note": "[Example 48, (3,5-bis-trifluoromethyl-benzyl)[2-(cyclopentylmethyl-ethyl-amino)-quinolin-3-ylmethyl]-dithiocarbamic acid methyl ester]", "values": [{"measurement": "pIC50", "value": "≥ 5.30"}]}, {"smiles": "CCOC(=O)NC(=S)N(Cc1cc(C(F)(F)F)cc(C(F)(F)F)c1)Cc1cc2ccccc2nc1N(CC)CC1CCCC1", "note": "[Example 49, 3-ethoxycarbonyl-1-(3,5-Bis-trifluoromethyl-benzyl)-1-[2-(cyclopentylmethyl-ethyl-amino)-quinolin-3-ylmethyl]-thiourea]", "values": [{"measurement": "pIC50", "value": "≥ 5.30"}]}, {"smiles": "CCCCN(CC)c1nc2ccccc2cc1CN(Cc1cc(C(F)(F)F)cc(C(F)(F)F)c1)c1nnn(C)n1", "note": "[Example 54]", "values": [{"measurement": "pIC50", "value": "≥ 6.00"}]}, {"smiles": "CCN(CC1CC1)c1nc2ccccc2cc1CN(Cc1cc(C(F)(F)F)cc(C(F)(F)F)c1)c1nnn(C)n1", "note": "[Example 55]", "values": [{"measurement": "pIC50", "value": "≥ 6.00"}]}, {"smiles": "CCN(CC1CCC1)c1nc2ccccc2cc1CN(Cc1cc(C(F)(F)F)cc(C(F)(F)F)c1)c1nnn(C)n1", "note": "[Example 56]", "values": [{"measurement": "pIC50", "value": "≥ 6.00"}]}, {"smiles": "CCN(CC1CCCC1)c1nc2ccccc2cc1CN(Cc1cc(C(F)(F)F)cc(C(F)(F)F)c1)c1nc(C)cs1", "note": "[Example 63]", "values": [{"measurement": "pIC50", "value": "≥ 5.30"}]}, {"smiles": "CCN(CC1CCC1)c1nc2ccccc2cc1CN(Cc1cc(C(F)(F)F)cc(C(F)(F)F)c1)c1cc(C)on1", "note": "[Example 65, (3-{[3,5-bis-trifluoromethyl-benzyl-(5-methyl-isoxazol-3-yl)-amino]-methyl}-quinolin-2-yl)-cyclobutylmethyl-ethyl-amine]", "values": [{"measurement": "pIC50", "value": "≥ 6.00"}]}, {"smiles": "CCN(CC1CCCC1)c1nc2ccccc2cc1CN(Cc1cc(C(F)(F)F)cc(C(F)(F)F)c1)c1ncccn1", "note": "[Example 66, (3-{[(3,5-bis-trifluoromethyl-benzyl)-pyrimidin-2-yl-amino]-methyl}-quinolin-2-yl)-cyclopentylmethyl-ethyl-amine]", "values": [{"measurement": "pIC50", "value": "≥ 5.30"}]}, {"smiles": "CCN(CC1CCCC1)c1nc2ccccc2cc1CN(Cc1cc(C(F)(F)F)cc(C(F)(F)F)c1)c1nc(C)co1", "note": "[Example 67]", "values": [{"measurement": "pIC50", "value": "≥ 6.00"}]}, {"smiles": "CCN(CC1CCCC1)c1nc2ccccc2cc1CN(Cc1cc(C(F)(F)F)cc(C(F)(F)F)c1)C1=NCCO1", "note": "[Example 68, (3-{[(3,5-bis-trifluoromethyl-benzyl)-(4,5-dihydro-oxazol-2-yl)-amino]-methyl}-quinolin-2-yl)-cyclopentylmethyl-ethyl-amine]", "values": [{"measurement": "pIC50", "value": "≥ 5.30"}]}, {"smiles": "CCN(CC1CCCC1)c1nc2ccccc2cc1CN(Cc1cc(C(F)(F)F)cc(C(F)(F)F)c1)c1ccccn1", "note": "[Example 69, (3-{[(3,5-bis-trifluoromethyl-benzyl)-pyridin-2-yl-amino]-methyl)-quinolin-2-yl)-cyclopentylmethyl-ethyl-amine]", "values": [{"measurement": "pIC50", "value": "≥ 5.30"}]}, {"smiles": "CCN(CC1CCCC1)c1nc2ccccc2cc1CN(Cc1cc(C(F)(F)F)cc(C(F)(F)F)c1)Cc1nnn(C)n1", "note": "[Example 70, (3-{[(3,5-bis-trifluoromethyl-benzyl)-(2-methyl-2H-tetrazol-5-ylmethyl)-amino]-methyl}-quinolin-2-yl)-cyclopentylmethyl-ethyl-amine]", "values": [{"measurement": "pIC50", "value": "≥ 5.30"}]}, {"smiles": "CCN(CC1CCCC1)c1nc2ccccc2cc1CN(Cc1cc(C(F)(F)F)cc(C(F)(F)F)c1)Cc1nnnn1C", "note": "[Example 71, (3-{[(3,5-bis-trifluoromethyl-benzyl)-(1-methyl-1H-tetrazol-5-ylmethyl)-amino]-methyl}-quinolin-2-yl)-cyclopentylmethyl-ethyl-amine]", "values": [{"measurement": "pIC50", "value": "≥ 5.30"}]}, {"smiles": "CCCCN(CC)c1ncccc1CN(Cc1cc(C(F)(F)F)cc(C(F)(F)F)c1)c1nnn(C)n1", "note": "[Example 73]", "values": [{"measurement": "pIC50", "value": "≥ 5.30"}]}, {"smiles": "CCN(CC1CCCC1)c1nc2c(cc1CN(Cc1cc(C(F)(F)F)cc(C(F)(F)F)c1)C(=O)OC)CCCC2", "note": "[Example 74]", "values": [{"measurement": "pIC50", "value": "≥ 6.00"}]}, {"smiles": "CCN(CC1CCCC1)c1nc2c(cc1CN(Cc1cc(C(F)(F)F)cc(C(F)(F)F)c1)C(=O)OC)CCC2", "note": "[Example 75, (3,5-bis-trifluoromethyl-benzyl)-[2-(cyclopentylmethyl-ethyl-amino)-6,7-dihydro-5H-[1]pyridin-3-ylmethyl]-carbamic acid methyl ester]", "values": [{"measurement": "pIC50", "value": "≥ 5.30"}]}, {"smiles": "CCN(CC1CCCC1)c1nc2c(cc1CN(Cc1cc(C(F)(F)F)cc(C(F)(F)F)c1)c1nnn(C)n1)CCC2", "note": "[Example 76, (3-{[(3,5-bis-trifluoromethyl-benzyl)-(2-methyl-2H-tetrazole-5-yl)-amino]-methyl}-,6,7-dihydro-5H-[1]pyridine-2-yl)-cyclopentylmethyl-ethyl-amine]", "values": [{"measurement": "pIC50", "value": "≥ 6.00"}]}, {"smiles": "CCN(CC1CCCC1)c1nc2c(cc1CN(Cc1cc(C(F)(F)F)cc(C(F)(F)F)c1)c1nnn(C)n1)CCCC2", "note": "[Example 77]", "values": [{"measurement": "pIC50", "value": "≥ 6.00"}]}, {"smiles": "CCN(CC1CCCC1)c1nc2c(cc1CN(Cc1cc(C(F)(F)F)cc(C(F)(F)F)c1)c1nnc(C)o1)CCCC2", "note": "[Example 78, (3-{[3,5-bis-trifluoromethyl-benzyl)-(5-methyl-[1,3,4oxadiazol-2-yl)-amino]-methyl}-5,6,7,8-tetrahydroquinoline-2-yl)-cyclopentylmethyl-ethyl-amine]", "values": [{"measurement": "pIC50", "value": "≥ 6.00"}]}, {"smiles": "Cc1cccc2cc(CN(Cc3cc(C(F)(F)F)cc(C(F)(F)F)c3)c3nnn(C(C)C)n3)c(N(CC3CC3)CC3CC3)nc12", "note": "[Example 85]", "values": [{"measurement": "pIC50", "value": "≥ 6.00"}]}, {"smiles": "Cc1cccc2cc(CN(Cc3cc(C(F)(F)F)cc(C(F)(F)F)c3)c3nnn(CCNC(=O)OC(C)(C)C)n3)c(N(CC3CC3)CC3CC3)nc12", "note": "[Example 86, (2-{5-[[2-(bis-cyclopropylmethyl-amino)-8-methyl-quinolin-3-ylmethyl]-(3,5-bis-trifluoromethyl-benzyl)-amino]-tetrazol-2-yl}-ethyl)-carbamic acid tert-butyl ester]", "values": [{"measurement": "pIC50", "value": "≥ 6.00"}]}, {"smiles": "Cn1nnc(N(Cc2cc(C(F)(F)F)cc(C(F)(F)F)c2)Cc2cc3cccc(Cl)c3nc2N(CC2CC2)CC2CC2)n1", "note": "[Example 90]", "values": [{"measurement": "pIC50", "value": "≥ 6.00"}]}]}
